Assay results published in patent publication US20200031866A1, “PEPTIDE INHIBITORS OF SODIUM CHANNELS” (SPYRYX BIOSCIENCES, INC., priority 2016, published 2020).
Where two headings read alike, the source gives them in different places. Square brackets hold non-standard residues; d marks the D form. Peptide text beside a SMILES is read from it.

What was measured:
alpha-ENaC = target: T1, alpha-ENaC (Homo sapiens, UniProt P37088); experiment: Internalization of alpha-ENaC in HEK293T cells, GFP-tagged alpha-ENaC co-expressed only with gamma ENaC and no beta-ENaC; type: cell-based; conditions: FIG. 6
T1 construct: expressed in transfected cells; host or cells: HEK293T
T1 sequence (P37088 1-669): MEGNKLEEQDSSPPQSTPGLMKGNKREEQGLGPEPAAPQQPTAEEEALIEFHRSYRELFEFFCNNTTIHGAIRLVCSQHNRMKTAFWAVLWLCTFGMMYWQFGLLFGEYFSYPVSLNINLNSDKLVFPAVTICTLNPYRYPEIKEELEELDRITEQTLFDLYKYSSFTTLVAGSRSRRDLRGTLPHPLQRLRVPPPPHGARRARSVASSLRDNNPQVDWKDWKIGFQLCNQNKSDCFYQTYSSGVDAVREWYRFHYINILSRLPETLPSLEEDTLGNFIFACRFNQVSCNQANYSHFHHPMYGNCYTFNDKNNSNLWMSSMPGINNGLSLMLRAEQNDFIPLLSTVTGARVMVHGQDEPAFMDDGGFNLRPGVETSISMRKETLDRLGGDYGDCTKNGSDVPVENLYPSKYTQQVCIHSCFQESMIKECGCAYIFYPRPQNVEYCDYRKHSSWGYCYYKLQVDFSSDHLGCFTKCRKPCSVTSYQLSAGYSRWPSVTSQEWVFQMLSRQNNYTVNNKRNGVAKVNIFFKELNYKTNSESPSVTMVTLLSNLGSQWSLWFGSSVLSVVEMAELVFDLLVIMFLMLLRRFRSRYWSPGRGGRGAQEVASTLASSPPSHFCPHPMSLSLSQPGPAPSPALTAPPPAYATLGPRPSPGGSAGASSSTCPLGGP
Description: […] Am J Physiol Lung Cell Mol Physiol. 2013 December; 305(12):L990-L1001. doi: 10.1152/ajplung.00103.2013. Epub 2013 October; Garland et al. Proc Natl Acad Sci USA. 2013 Oct. 1; 110(40):15973-8. doi: 10.1073/pnas.1311999110. Epub 2013 Sep. 16.; Tan et al. J Physiol. 2014 Dec. 1; 592(Pt 23):5251-68). Twenty-four hours later, peptide or vehicle control were added at t=0 and fluorescence was read using a Tecan M1000 plate reader 3 h later. Fluorescence was read at 488 nm (excitation)/510 nm (emission).

βENaC-Tg mice = type: in vivo
From the text: Like CF patients, βENaC-Tg mice are disease free at birth, but soon develop obstructive lung disease (Zhou, Z., et al. Am J Respir Crit Care Med 178, 1245-1256 (2008)). C57BL:FVB and C57BL:C3H mixed strains have 90% and 50% mortality, respectively, and the reproducibility of the disease on these backgrounds is sufficiently high that reliable data are produced with n of about 8-10 animals/group. Furthermore, the βENaC-Tg mouse responds to therapeutic interventions in a fashion similar to CF/COPD in humans, and the development of lung disease can be prevented following inhibition of lung disease at birth (Livraghi, A., et al. J Immunol 182, 4357-4367 (2009)). S18-derived peptides or vehicle were dosed one to three times a day by intranasal instillation (1 μl/g body weight) for 14 days in parallel cohorts of mice. Mice were weighed daily and, if a diuretic effect was found, the volume excreted was replaced by sub-cutaneous injections of sterile saline. At the end of the treatment, mice were sacrificed for phenotypic analysis.

[1] = target: T2, epithelial sodium channels (Homo sapiens, UniProt P37088+P51168+P51170); experiment: Airway surface liquid hyper absorption in human bronchial epithelial cultures from CF patients; type: cell-based
T2 construct: human bronchial epithelial cultures from CF patients; endogenous in cells; host or cells: human bronchial epithelial cultures from CF patients
T2 sequence (P37088 1-669): T1 sequence (P37088 1-669)
T2 sequence (P51168 1-640): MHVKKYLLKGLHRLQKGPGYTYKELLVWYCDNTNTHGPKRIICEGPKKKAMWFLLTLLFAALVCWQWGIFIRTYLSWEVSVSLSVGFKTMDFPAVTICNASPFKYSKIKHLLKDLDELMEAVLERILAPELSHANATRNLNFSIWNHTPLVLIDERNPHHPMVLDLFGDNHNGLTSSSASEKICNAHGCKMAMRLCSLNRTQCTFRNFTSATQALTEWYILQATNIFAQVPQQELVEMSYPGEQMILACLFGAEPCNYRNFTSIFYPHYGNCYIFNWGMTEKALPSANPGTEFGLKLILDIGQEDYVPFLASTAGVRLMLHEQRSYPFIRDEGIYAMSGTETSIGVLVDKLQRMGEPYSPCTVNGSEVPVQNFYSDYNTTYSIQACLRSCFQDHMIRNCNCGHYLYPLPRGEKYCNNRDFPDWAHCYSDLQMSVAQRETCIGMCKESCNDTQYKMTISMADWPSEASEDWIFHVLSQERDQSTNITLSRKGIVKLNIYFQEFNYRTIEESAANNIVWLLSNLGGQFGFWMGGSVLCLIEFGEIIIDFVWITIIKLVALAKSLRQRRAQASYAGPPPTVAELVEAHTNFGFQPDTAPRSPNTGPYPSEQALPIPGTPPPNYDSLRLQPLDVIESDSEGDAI
T2 sequence (P51170 1-649): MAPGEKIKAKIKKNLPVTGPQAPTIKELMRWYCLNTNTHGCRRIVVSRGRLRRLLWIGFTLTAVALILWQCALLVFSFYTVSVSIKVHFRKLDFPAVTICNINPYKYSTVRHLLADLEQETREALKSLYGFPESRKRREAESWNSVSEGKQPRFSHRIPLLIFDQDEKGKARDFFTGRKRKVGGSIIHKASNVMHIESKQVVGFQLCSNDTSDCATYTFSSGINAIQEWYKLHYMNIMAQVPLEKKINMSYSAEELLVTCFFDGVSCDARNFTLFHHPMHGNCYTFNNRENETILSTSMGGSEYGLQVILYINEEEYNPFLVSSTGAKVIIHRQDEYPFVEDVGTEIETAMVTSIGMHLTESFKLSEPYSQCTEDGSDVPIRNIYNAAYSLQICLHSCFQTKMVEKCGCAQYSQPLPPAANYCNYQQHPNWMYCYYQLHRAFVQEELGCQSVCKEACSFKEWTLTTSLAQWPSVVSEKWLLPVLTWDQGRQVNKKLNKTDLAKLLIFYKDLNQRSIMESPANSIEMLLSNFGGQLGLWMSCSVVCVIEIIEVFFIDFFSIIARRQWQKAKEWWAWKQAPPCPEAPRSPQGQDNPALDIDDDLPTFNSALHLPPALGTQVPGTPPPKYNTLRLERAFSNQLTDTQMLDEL

## CC[C@H](C)[C@H](NC(=O)[C@@H]1CCCN1C(=O)[C@H](CC(C)C)NC(=O)[C@@H](C)NC(=O)[C@@H](C)N)C(=O)N1CCC[C@H]1C(=O)N[C@@H](CC(C)C)C(=O)N[C@@H](CC(=O)O)C(=O)N[C@@H](CCC(N)=O)C(=O)N[C@H](C(=O)N[C@H](C)C(=O)N[C@H](C)C(N)=O)[C@@H](C)O [SEQ ID NO:128, aaLPIPLDQTaa] (H-[dA][dA]LPIPLDQT[dA][dA]-NH2)
alpha-ENaC
  effect on alpha-ENaC: no effect
βENaC-Tg mice; βENaC-Tg C57BL:C3H mice, fourteen-day treatment, FIGS. 7C, 7D, 7F
  percent survival: increased percent survival
βENaC-Tg mice; βENaC-Tg C57BL:C3H mice, once daily dosing, FIG. 7E left panel
  percent survival: increased percent survival
βENaC-Tg mice; βENaC-Tg C57BL:FVB mice, fourteen-day inhaled treatment, FIG. 7B
  percent survival: more effective than inhaled SEQ ID NO:142 at increasing percent survival
[1]
  duration of prevention of airway surface liquid hyper absorption following a single dose: > 8 h
